Results: patent US20190183939A1, “CELL THERAPY USING MIDBRAIN-TYPE NEURAL STEM CELLS TREATED WITH VITAMIN C” (INDUSTRY-UNIVERSITY COOPERATION FOUNDATION HANYANG …, priority 2017, published 2019)

System: VM-NSCs
Experiment: DA neuron differentiation (TH+ cell yield) of in vitro expanded VM-NSCs
Type: cell-based, rat
Method: NSCs were cultured from rat embryo VMs (Sprague Dawley) at embryonic day 12 (E12) on 6-cm dishes or 24-well plates pre-coated with 15 μg/ml poly-L-ornithine (PLO; Sigma)/1 ug/ml fibronectin (FN; Sigma, St. Louis, Mo.) in serum-free N2 medium. NSCs were induced to proliferate by the mitogenic action of basic fibroblast growth factor (bFGF, 20 ng/ml, R&D Systems, Minneapolis, Minn.). The proliferating VM-NSCs cultured in 6-cm dishes were passaged at every 4th day in mitogen-supplemented medium with or without Vitamin C (VC; Sigma; 200 μM), glutathione reduced form (GSH; Sigma; 200 μM), vitamin E (alpha-tocopherol; Sigma; 200 μM), or N-acetylcysteine (NAc; Sigma; 100 μM). The expanded NSCs at the last day of each passage were induced to differentiate by withdrawing the mitogen and antioxidants from the media (for 2-16 days). Human NSC cultures were derived by in vitro differentiation of hESCs (H9) and cultured as described in the following reference. [Rhee, Y. H., Ko, J. Y., Chang, M. Y., Yi, S. H., Kim, D., Kim, C. H., Shim, J. W., Jo, A. Y., Kim, B. W., Lee, H., et al. (2011). Protein-based human iPS cells efficiently generate functional dopamine neurons and can treat a rat model of Parkinson disease. The Journal of clinical investigation 121, 2326-2335]. The human NSCs were expanded in ITS media supplemented with bFGF (20 ng/ml) in the presence or absence of VC for two NSC passages. Differentiation of the passaged human NSCs was induced by withdrawal of bFGF and VC in ITS supplemented with brain-derived neurotrophic factor (20 ng/ml; R&D Systems), glial cell line derived neurotrophic factor (20 ng/ml; R&D Systems), and dibutyryl cAMP (0.5 mmol/1; Sigma). Cultures were maintained at 37° C. in humidified 5% CO2 incubators.
Cultured cells and cryosectioned brain slices were fixed with 4% paraformaldehyde (PFA), and blocked for 40 minutes in blocking solution (Blocking solution: 1% BSA+0.3% Triton X-100). For 5hmC and 5mC staining, the fixed cells were incubated with 2 N HCl for 20 minutes before the blocking reaction. The samples were incubated overnight at 4° C. in the blocking solution containing the primary antibodies listed in Supplemental Table 1. Secondary antibodies tagged with Alexa 488 (1:200, Invitrogen, Carlsbad, Calif.) and Cy3 (1:200, Jackson Immunoresearch Laboratories, West Grove, Pa.) were applied. Stained samples were mounted in Vectashield medium containing 40,6-diamidino-2-phenylindole (DAPI; Vector Laboratories, West Grove, Pa.) and analysed under an epifluorescence (Leica, Wetzlar, Germany) or confocal microscope (Leica TSP SP5).
Immunostained cells were counted in 10-20 random areas of each culture coverslip using an eyepiece grid at a magnification of 200×. Data are expressed as the mean±SEM of three to eight independent cultures. […]

For O=C1O[C@H]([C@@H](O)CO)C(O)=C1O [VC, L-ascorbic acid], the “expression of other DA phenotypes (VMAT2, AADC and DAT) in TH+ cells” value (P1, VC during expansion, differentiated 12 days without VC) was “Virtually all”, the “TH+ cell yields (% of total DAPI+ cells)” value (VC 200 uM during expansion, P1 cultures, differentiated without VC, D6) was 10.85±1.2% and the “TH+ DA neuronal yields” value (VC during expansion, P2 cultures, differentiated without VC) was 1.22±0.1%. The “prevention of DA neuron loss in passaged cultures” value (antioxidant during expansion for 8 days (up to P1), differentiation without antioxidants) was “prevention of DA neuron loss”.
